This assay concerns the target T1, TrkA (Homo sapiens, UniProt P04629).
T1 construct: purchased Invitrogen PV3144
In words: TrkA kinase inhibition, HTRF assay. It counts as biochemical. The following applies: LCK peptide substrate 125 nM, TrkA 2-10 nM pre-incubated with ATP 200 μM. The method, then: TrkA, TrkB, and TrkC enzymes were obtained from Invitrogen (as catalog numbers PV3144, PV3616, and PV3617, respectively). The ability of a compound to inhibit the enzymatic activity of the TrkA, TrkB, and TrkC enzymes was determined in separate assays. Enzyme activity was measured in an HTRF® (homogeneous time resolved fluorescence) assay, which detects enzymatic phosphorylation of a biotinylated synthetic peptide substrate (an LCK peptide analog, biotin-ahx-GAEEEIYAAFFA, from Genemed Synthesis). Phosphorylation is assessed by HTRF® in the presence of an anti-phosphotyrosine antibody conjugated to Eu^3+ cryptate (Cisbio) as donor fluorophore, and streptavidin conjugated to allophycocyanin (ProZyme) as acceptor fluorophore. The HTRF® signal was detected at two different wavelengths (620 nm and 665 nm) which were used to calculate the fluorescence ratio.
Each enzyme was titrated to a concentration optimized to ensure accurate measurement of the initial reaction rate. To allow the Trk enzymes to undergo activation and auto-phosphorylation, a 20 minute pre-incubation with ATP was carried out (at twice the final targeted enzyme and ATP concentration) prior to addition of test compound and the peptide substrate.
TrkA in vitro assays were performed by pre-incubating TrkA (2-10 nM) with ATP (200 μM) for 20 minutes at ambient temperature in 50 mM HEPES pH 7.4, 10 mM MgCl2, 2 mM MnCl2, 100 μM Na3VO4, 1 mM dithiothreitol, 0.01% BSA (bovine serum albumin). Then, to the activated Trk enzyme mixture was added the test compound in 2% dimethyl sulfoxide. After 10 minutes, the peptide substrate (125 nM) was added. After 1 hour, enzyme reactions were terminated by addition of equal reaction volumes of detection/stop reagent (containing 0.2 μg/mL anti-phosphotyrosine monoclonal antibody labeled with europium from Cisbio (catalog# PT66-K), and 4 μg/mL PhycoLink® Streptavidin-Allophycocyanin conjugate from ProZyme (catalog# PJ25S) in 60 mM EDTA in 40 mM HEPES pH 7.4, 480 mM KF, 0.01% Tween® 20 and 0.1% BSA bovine serum albumin) Reaction plates were stored at 4° C. overnight before reading the fluorescence ratio signal on a PerkinElmer EnVision™ fluorescence detector. Individual reaction wells were stopped at time points to obtain reaction rates. The test inhibitor compounds were assayed in duplicate, at half-log serial dilutions over a range of concentrations (e.g. starting at 50 μM or 5 μM as the high compound concentration). The percent Trk enzyme inhibition was calculated from the initial rates of the inhibited reactions relative to the uninhibited control. IC50 values were calculated by fitting the inhibition percent to the concentration of inhibitor [I] in the assay in equation 1 below, to solve for the IC50.
Inhibition %=100[I]/([I]+[IC50]) equation 1
A general note: Time-resolved FRET reads energy transfer from a long-lived donor to a nearby acceptor.

Structures are written as SMILES.

Usually IC50 stands for the concentration that inhibits the measured activity by half. A low value points to greater potency in that assay.

T1 sequence (P04629 33-796): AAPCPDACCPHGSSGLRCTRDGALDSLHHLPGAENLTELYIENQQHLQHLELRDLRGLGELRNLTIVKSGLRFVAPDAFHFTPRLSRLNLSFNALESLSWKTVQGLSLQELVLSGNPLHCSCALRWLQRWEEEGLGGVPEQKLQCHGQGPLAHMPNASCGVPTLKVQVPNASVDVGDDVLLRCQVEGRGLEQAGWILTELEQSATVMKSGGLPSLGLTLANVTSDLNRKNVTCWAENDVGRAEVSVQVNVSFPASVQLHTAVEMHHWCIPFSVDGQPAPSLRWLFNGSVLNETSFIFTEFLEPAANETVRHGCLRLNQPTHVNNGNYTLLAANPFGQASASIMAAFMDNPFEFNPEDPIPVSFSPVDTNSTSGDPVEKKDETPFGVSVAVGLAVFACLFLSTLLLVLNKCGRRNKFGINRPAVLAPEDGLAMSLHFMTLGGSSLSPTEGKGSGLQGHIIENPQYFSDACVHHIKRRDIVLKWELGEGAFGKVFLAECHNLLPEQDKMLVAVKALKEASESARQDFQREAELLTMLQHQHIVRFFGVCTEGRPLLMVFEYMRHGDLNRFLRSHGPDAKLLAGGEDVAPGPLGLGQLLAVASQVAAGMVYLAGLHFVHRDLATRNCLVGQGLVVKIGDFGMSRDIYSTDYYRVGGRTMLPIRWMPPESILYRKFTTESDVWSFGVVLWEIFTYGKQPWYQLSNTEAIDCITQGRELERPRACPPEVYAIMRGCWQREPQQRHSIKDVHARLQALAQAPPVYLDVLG

For `CNC(=O)c1ccc(-c2cc(OC3CCOCC3)c3c(N)n[nH]c3c2)cc1N1CCN(C(=O)C2CC2)CC1` [Example 32, 4-[3-amino-4-(tetrahydro-2H-pyran-4-yloxy)-1H-indazol-6-yl]-2-[4-(cyclopropylcarbonyl)piperazin-1-yl]-N-methylbenzamide], half-maximal inhibition (IC50) required 376 nM. `CNC(=O)c1ccc(-c2cc(OC(C)C(F)(F)F)c3c(N)n[nH]c3c2)cc1N1CCN(c2ccccc2)CC1` (centres unmarked) [Example 33, 4-{3-amino-4-[(1,1,1-trifluoropropan-2-yl)oxy]-1H-indazol-6-yl}-N-methyl-2-(4-phenylpiperazin-1-yl)benzamide] yielded an IC50 of 28 nM. This IC50 lies about 13-fold lower than the previous one.

The compound `CNC(=O)c1ccc(-c2cc(OC(C)C(F)(F)F)c3c(N)n[nH]c3c2)cc1N1CCN(c2cccnc2)CC1` (centres unmarked) [Example 36, 4-{3-amino-4-[(1,1,1-trifluoropropan-2-yl)oxy]-1H-indazol-6-yl}-N-methyl-2-[4-(pyridin-3-yl)piperazin-1-yl]benzamide] registered an IC50 of 25.8 nM. On to `CNC(=O)c1ccc(-c2cc(OC(C)C(F)(F)F)c3c(N)n[nH]c3c2)cc1N1CCN(CCN2CCOCC2)CC1` (centres unmarked) [Example 37, 4-{3-amino-4-[(1,1,1-trifluoropropan-2-yl)oxy]-1H-indazol-6-yl}-N-methyl-2-{4-[2-(morpholin-4-yl)ethyl]piperazin-1-yl}benzamide], for which it took 667 nM to reach half-maximal inhibition (IC50). Compared with the last compound, the IC50 is about 26-fold higher. As for `CNC(=O)c1ccc(-c2cc(OC(C)C(F)(F)F)c3c(N)n[nH]c3c2)cc1N1CCN(c2cnccn2)CC1` (centres unmarked) [Example 38, 4-{3-amino-4-[(1,1,1-trifluoropropan-2-yl)oxy]-1H-indazol-6-yl}-N-methyl-2-[4-(pyrazin-2-yl)piperazin-1-yl]benzamide], the figure is 31.2 nM; as for `CNC(=O)c1ccc(-c2cc(O[C@@H](C)C(F)(F)F)c3c(N)n[nH]c3c2)cc1N1CCN(c2ccccc2)CC1` [Example 39, 4-(3-amino-4-{[(2S)-1,1,1-trifluoropropan-2-yl]oxy}-1H-indazol-6-yl)-N-methyl-2-(4-phenylpiperazin-1-yl)benzamide], 41.7 nM; as for `CNC(=O)c1ccc(-c2cc(O[C@@H](C)C(F)(F)F)c3c(N)n[nH]c3c2)cc1N1CCN(CCC(C)(C)C)CC1` [Example 40, 4-(3-amino-4-{[(2S)-1,1,1-trifluoropropan-2-yl]oxy}-1H-indazol-6-yl)-2-[4-(3,3-dimethylbutyl)piperazin-1-yl]-N-methylbenzamide], 71.4 nM. For `CNC(=O)c1ccc(-c2cc(O[C@@H](C)C(F)(F)F)c3c(N)n[nH]c3c2)cc1N1CCN(c2cccnc2)CC1` [Example 41, 4-(3-amino-4-{[(2S)-1,1,1-trifluoropropan-2-yl]oxy}-1H-indazol-6-yl)-N-methyl-2-[4-(pyridin-3-yl)piperazin-1-yl]benzamide], the IC50 stood at 29.2 nM. In the case of `CNC(=O)c1ccc(-c2cc(O[C@@H](C)C(F)(F)F)c3c(N)n[nH]c3c2)cc1N1CCN(C2CCC2)CC1` [Example 42, 4-(3-amino-4-{[(2S)-1,1,1-trifluoropropan-2-yl]oxy}-1H-indazol-6-yl)-2-(4-cyclobutylpiperazin-1-yl)-N-methylbenzamide], it took 422 nM to reach half-maximal inhibition (IC50). The compound `CNC(=O)c1ccc(-c2cc(O[C@@H](C)C(F)(F)F)c3c(N)n[nH]c3c2)cc1N1CCN(c2ncccn2)CC1` [Example 43, 4-(3-amino-4-{[(2S)-1,1,1-trifluoropropan-2-yl]oxy}-1H-indazol-6-yl)-N-methyl-2-[4-(pyrimidin-2-yl)piperazin-1-yl]benzamide] showed an IC50 of 63.1 nM. Against the preceding compound, the IC50 is about 6.7-fold lower.

In turn, `CNC(=O)c1ccc(-c2cc(O[C@@H](C)C(F)(F)F)c3c(N)n[nH]c3c2)cc1N1CCN(C2CCCC2)CC1` [Example 44, 4-(3-amino-4-{[(2S)-1,1,1-trifluoropropan-2-yl]oxy}-1H-indazol-6-yl)-2-(4-cyclopentylpiperazin-1-yl)-N-methylbenzamide] registered an IC50 of 25.3 nM.

In turn, `CNC(=O)c1ccc(-c2cc(O[C@@H](C)C(F)(F)F)c3c(N)n[nH]c3c2)cc1N1CCN(C(=O)C(C)(C)C)CC1` [Example 45, 4-(3-amino-4-{[(2S)-1,1,1-trifluoropropan-2-yl]oxy}-1H-indazol-6-yl)-2-[4-(2,2-dimethylpropanoyl)piperazin-1-yl]-N-methylbenzamide] returned an IC50 of 300 nM. This IC50 lies about 12-fold higher than the previous one.

`CNC(=O)c1ccc(-c2cc(O[C@@H](C)C(F)(F)F)c3c(N)n[nH]c3c2)cc1N1CCN(c2cnccn2)CC1` [Example 46, 4-(3-amino-4-{[(2S)-1,1,1-trifluoropropan-2-yl]oxy}-1H-indazol-6-yl)-N-methyl-2-[4-(pyrazin-2-yl)piperazin-1-yl]benzamide]: the IC50 came out at 32.5 nM.

In turn, `CNC(=O)c1ccc(-c2cc(O[C@H](C)C(F)(F)F)c3c(N)n[nH]c3c2)cc1N1CCN(c2ccccc2)CC1` [Example 48, 4-(3-amino-4-{[(2R)-1,1,1-trifluoropropan-2-yl]oxy}-1H-indazol-6-yl)-N-methyl-2-(4-phenylpiperazin-1-yl)benzamide] gave an IC50 of 38.5 nM.

Consider `CNC(=O)c1ccc(-c2cc(O[C@H](C)C(F)(F)F)c3c(N)n[nH]c3c2)cc1N1CCN(c2cccnc2)CC1` [Example 49, 4-(3-amino-4-{[(2R)-1,1,1-trifluoropropan-2-yl]oxy}-1H-indazol-6-yl)-N-methyl-2-[4-(pyridin-3-yl)piperazin-1-yl]benzamide], for which the IC50 came out at 141 nM. Against the preceding compound, the IC50 is about 3.7-fold higher. Turning to `CNC(=O)c1ccc(-c2cc(O[C@H](C)C(F)(F)F)c3c(N)n[nH]c3c2)cc1N1CCN(C2CCC2)CC1` [Example 50, 4-(3-amino-4-{[(2R)-1,1,1-trifluoropropan-2-yl]oxy}-1H-indazol-6-yl)-2-(4-cyclobutylpiperazin-1-yl)-N-methylbenzamide], the IC50 amounted to 530 nM. In turn, `CNC(=O)c1ccc(-c2cc(O[C@H](C)C(F)(F)F)c3c(N)n[nH]c3c2)cc1N1CCN(CCC(C)(C)C)CC1` [Example 51, 4-(3-amino-4-{[(2R)-1,1,1-trifluoropropan-2-yl]oxy}-1H-indazol-6-yl)-2-[4-(3,3-dimethylbutyl)piperazin-1-yl]-N-methylbenzamide] returned an IC50 of 75.4 nM.

In turn, `CNC(=O)c1ccc(-c2cc(O[C@H](C)C(F)(F)F)c3c(N)n[nH]c3c2)cc1N1CCN(c2ncccn2)CC1` [Example 52, 4-(3-amino-4-{[(2R)-1,1,1-trifluoropropan-2-yl]oxy}-1H-indazol-6-yl)-N-methyl-2-[4-(pyrimidin-2-yl)piperazin-1-yl]benzamide] returned an IC50 of 27.2 nM. With `CNC(=O)c1ccc(-c2cc(O[C@H](C)C(F)(F)F)c3c(N)n[nH]c3c2)cc1N1CCN(C2CCCC2)CC1` [Example 53, 4-(3-amino-4-{[(2R)-1,1,1-trifluoropropan-2-yl]oxy}-1H-indazol-6-yl)-2-(4-cyclopentylpiperazin-1-yl)-N-methylbenzamide], the IC50 was 44.4 nM. Regarding `CNC(=O)c1ccc(-c2cc(O[C@H](C)C(F)(F)F)c3c(N)n[nH]c3c2)cc1N1CCN(C(=O)C(C)(C)C)CC1` [Example 54, 4-(3-amino-4-{[(2R)-1,1,1-trifluoropropan-2-yl]oxy}-1H-indazol-6-yl)-2-[4-(2,2-dimethylpropanoyl)piperazin-1-yl]-N-methylbenzamide], the IC50 was 101 nM. With `CNC(=O)c1ccc(-c2cc(O[C@H](C)C(F)(F)F)c3c(N)n[nH]c3c2)cc1N1CCN(c2cnccn2)CC1` [Example 55, 4-(3-amino-4-{[(2R)-1,1,1-trifluoropropan-2-yl]oxy}-1H-indazol-6-yl)-N-methyl-2-[4-(pyrazin-2-yl)piperazin-1-yl]benzamide] the figure was 121 nM. As for `CNC(=O)c1ccc(-c2cc(O[C@H](C)C(F)(F)F)c3c(N)n[nH]c3c2)cc1N1CCN2CCCCC2C1` (stereo partly drawn) [Example 57, 4-(3-amino-4-{[(2R)-1,1,1-trifluoropropan-2-yl]oxy}-1H-indazol-6-yl)-N-methyl-2-(octahydro-2H-pyrido[1,2-a]pyrazin-2-yl)benzamide], the IC50 worked out at 6320 nM. As for `CNC(=O)c1ccc(-c2cc(O[C@H](C)C(F)(F)F)c3c(N)n[nH]c3c2)cc1N1CCOC(CC(C)C)C1` (stereo partly drawn) [Example 58, 4-(3-amino-4-{[(2R)-1,1,1-trifluoropropan-2-yl]oxy}-1H-indazol-6-yl)-2-(2-isobutylmorpholin-4-yl)-N-methylbenzamide], the figure is 673 nM.

The values above are taken from patent US20160376240A1, “6 Phenyl or 6 Pyridin 3 YL Indazole Derivatives and Methods of Use” (ABBVIE INC., priority 2014, published 2016).
